The results in this text go back to patent US8673911B2, “Inhibitors of histone deacetylase” (MethylGene Inc., priority 2007, dated 2014).

SMILES strings stand for the structures.

The experiment concerns the target one or more of HDAC4, HDAC5, HDAC6, HDAC7, HDAC8, HDAC9 and HDAC11. The experiment can be described thus: Inhibition of histone deacetylase enzymatic activity (fluorogenic Boc-Lys(Ac)-AMC / Boc-Lys(trifluoroacetyl)-AMC substrate). The format is biochemical. Particulars: against one or more of HDAC4, HDAC5, HDAC6, HDAC7, HDAC8, HDAC9 and HDAC11. On the procedure: Inhibition of HDAC-1,2,3,6 and 8
The following protocol is used to assay the compounds of the invention. In the assay, the buffer used is 25 mM HEPES, pH 8.0, 137 mM NaCl, 2.7 mM KCl, 1 mM MgCl2 and the substrate is Boc-Lys(Ac)-AMC in a 50 mM stock solution in DMSO. The enzyme stock solution is 4.08 μg/mL in buffer.
The compounds are pre-incubated (2 μl, in DMSO diluted to […] in buffer for transfer to assay plate) with enzyme (20 μL of 4.08 μg/mL) for 10 minutes at room temperature (35 μL pre-incubation volume). The mixture is pre-incubated for 5 minutes at room temperature. The reaction is started by bringing the temperature to 37° C. and adding 15 μL substrate. Total reaction volume is 50 μL. The reaction is stopped after 20 minutes by addition of 50 μL developer, prepared as directed by Biomol (FLUOR DE LYS™ developer, Cat. # KI-105). A plate is incubated in the dark for 10 minutes at room temperature before reading (λEx=360 nm, λEm=470 nm, Cutoff filter at 435 nm).
Inhibition of Class II HDAC and HDAC-11
A 30 mM stock of Boc-Lys(trifluoroacetyl)-AMC substrate is prepared in DMSO. 2 μL test compound in DMSO is diluted to 50 μL in buffer (25 mM HEPES, pH 8.0, 137 mM NaCl, 2.7 mM KCl, 1 mM MgCl2, 0.1% BSA) and pre-incubated with HDAC enzyme (30 μL of a final enzyme concentration of 0.1-0.2 nM) for 10 minutes at room temperature. Reaction is started by adding 18 μL Boc-Lys(trifluoroacetyl)-AMC substrate and incubating at 37° C. for 20-30 minutes. The reaction is stopped by adding 50 μL trypsin (1 mg/mL) and a known HDAC inhibitor. The plate is then incubated in the dark for 20 minutes at room temperature and read with Ex=360 nm, Em=470 nm, cutoff filter at 435 nm.
Turning to `O=C(NO)c1sc(-c2cccs2)nc1-c1ccccc1` [Compound 140, N-hydroxy-4-phenyl-2-(thiophen-2-yl)thiazole-5-carboxamide], the IC50 (usually the concentration that gives 50% inhibition) was 500 to 750 nM.

Compound `O=C(NO)c1sc(C2CCN(Cc3ccncc3)CC2)nc1-c1ccccc1` [Compound 144, N-hydroxy-4-phenyl-2-(1-(pyridin-4-ylmethyl)piperidin-4-yl)thiazole-5-carboxamide] registered a concentration for half-maximal inhibition (IC50) below 250 nM.

In the case of `O=C(NO)c1cn(Cc2ccccc2)nc1-c1ccccc1` [Compound 106, 1-benzyl-N-hydroxy-3-phenyl 1H-pyrazole-4-carboxamide], the half-inhibitory concentration (IC50) was 250 to 500 nM.

As for `O=C(NO)c1ccccc1-c1cccc([N+](=O)[O-])c1` [Compound 26, N-hydroxy-3′-nitrobiphenyl-2-carboxamide], the IC50 fell in the range of 750 to 5000 nM.

In the case of `O=C(NO)c1sc(C2CCN(CCc3c[nH]c4ccccc34)CC2)nc1-c1ccccc1` [Compound 152, 2-(1-(2-(1H-indol-3-yl)ethyl)piperidin-4-yl)-N-hydroxy-4-phenylthiazole-5-carboxamide], the concentration for half-maximal inhibition (IC50) is below 250 nM.

As for `Cc1cscc1-c1cccc(-c2ccccc2C(=O)NO)c1` [Compound 29, N-hydroxy-3′-(4-methyl-thiophen-3-yl) biphcnyl-2-carboxamidc], the IC50 lay within 500 to 750 nM.

As for `O=C(NO)c1sc(C2CCN(C(=O)c3ccccc3)CC2)nc1-c1ccccc1` [Compound 133, 2-(1-benzoylpiperidin-4-yl)-N-hydroxy-4-phenylthiazole-5-carboxamide], the IC50 was below 250 nM.

Compound `O=C(NO)c1sc(N2CCCc3ccccc32)nc1-c1ccccc1` [Compound 121, 2-(3,4-dihydroquinolin-1(2H)-yl)-N-hydroxy-4-phenylthiazole-5-carboxamide] registered an IC50 below 250 nM.

`CS(=O)(=O)N1CCC(c2nc(-c3ccccc3)c(C(=O)NO)s2)CC1` [Compound 148, N-hydroxy-2-(1-(methylsulfonyl)piperidin-4-yl)-4-phenylthiazole-5-carboxamide]: the concentration for half-maximal inhibition (IC50) was below 250 nM.

For `O=C(NO)c1ccccc1-c1cccc(-c2ccccc2)c1` [Compound 13], the 50% inhibitory concentration (IC50) lay in the range of 750 to 5000 nM.

Compound `O=C(NCc1ccccc1)OCc1cc(-c2ccccc2)c(C(=O)NO)s1` [Compound 180, (5-(hydroxycarbamoyl)-4-phenylthiophen-2-yl)methyl benzylcarbamate] gave an IC50 below 250 nM.

In the case of `O=C(NO)c1sc(-c2ccccn2)nc1-c1ccccc1` [Compound 153, N-hydroxy-4-phenyl-2-(pyridin-2-yl)thiazole-5-carboxamide], the IC50 was in the range of 250 to 500 nM.

The compound `O=C(NO)c1sc(-c2ccccc2)cc1-c1ccccc1` [Compound 92, N-hydroxy-3,5-diphenylthiophene-2-carboxamide] yielded an IC50 below 250 nM.

In turn, `Cc1cscc1-c1ccccc1C(=O)NO` [Compound 24, N-hydroxy-2-(4-mcthylthiophen-3-yl)benzamide] came in with a concentration for half-maximal inhibition (IC50) of 750 to 5000 nM.

`O=C(NO)c1cnc(-c2ccccc2)nc1-c1cccc(F)c1` [Compound 143, 4-(3-fluorophenyl)-N-hydroxy-2-phenylpyrimidine-5-carboxamide]: the IC50 is 250 to 500 nM.

`COc1cccc(-c2cc(C)ccc2C(=O)NO)c1` [Compound 33, N-hydroxy-3′-methoxy-5-mcthylbiphenyl-2-carboxamide]: the IC50 fell in the range of 500 to 750 nM.

For the compound `O=C(NO)c1sc(-c2ccccc2)cc1-c1ccccc1` [Compound 86, N-hydroxy-3,5-diphenylthiophene-2-carboxamide], the half-maximal inhibitory concentration (IC50) was below 250 nM.

As for `O=C(NO)c1sc(-c2ccc(OCCN3CCOCC3)cc2)nc1-c1ccccc1` [Compound 146, N-hydroxy-2-(4-(2-morpholinoethoxy)phenyl)-4-phenylthiazole-5-carboxamide], the concentration for half-maximal inhibition (IC50) is below 250 nM.

`O=C(Cc1ccc(C(F)(F)F)cc1)Nc1ccc(C(=O)NO)c(-c2ccccc2)c1` [Compound 155, N-hydroxy-5-(2-(4-(trifluoromethyl)phenyl)acetamido) biphenyl-2-carboxamide] registered an IC50 below 250 nM.

`O=C(NO)c1sc(-c2ccc3c(c2)CCO3)nc1-c1ccccc1` [Compound 139, 2-(2,3-dihydrobenzofuran-5-yl)-N-hydroxy-4-phenylthiazole-5-carboxamide]: the IC50 lay in the range of 750 to 5000 nM.

`O=C(NO)c1sc(Cc2ccccc2)cc1-c1ccccc1` [Compound 130, 5-benzyl-N-hydroxy-3-phenylthiophene-2-carboxamide] showed an IC50 below 250 nM.

On to `O=C(NO)c1sc(-c2ccc(N3CCOCC3)cc2)nc1-c1ccccc1` [Compound 109, N-hydroxy-2-(4-morpholino-phenyl)-4-phenylthiazole-5-carboxamide], for which the concentration for half-maximal inhibition (IC50) was below 250 nM.
